In patent US12161723B2, “Water-based cannabinoid and opioid compositions” (DAY THREE LABS MAN[…]., priority 2014, dated 2024):

Legend:
[1] = target: T1, bovine serum albumin (BSA) (Bos taurus, UniProt P02769); test: Cannabis smoke bubbled through aqueous BSA solution, cannabinoids determined by HPLC (Example 1a); assay type: binding; conditions: BSA in Hartmann's solution; FIG. 2A
T1 construct: purchased Millipore, USA
Description: Protein-bound cannabinoid was formed according to the following method. An aqueous albumin solution was prepared by adding 20 (mg)) of bovine serum albumin (BSA, from Millipore, USA) to 10 milliliters (ml) ml Hartmann's solution (B. Braun Melsungen AG, Germany). BSA was completely dissolved using a shaker (Heidolph POLYMAX 1040) at 50 revolutions per minute.
A cannabis-filled cigarette was formed using a cigarette paper containing 0.8 gr ground cannabis (provided by “Seach” Israel), from flowers and budding leaves. A Pasteur pipette was cut longitudinally at its wide end, and the cigarette was lodged in to the cut end. The narrow end of the pipette was attached to a syringe. The cigarette was lit in a fume hood, and cigarette smoke was collected in the syringe by pulling the syringe plunger. The smoke was then slowly released into the BSA solution by depressing the plunger. Approximately 350 ml of smoke-containing air was gently bubbled through the BSA solution.
As a control, a solution of 10 ml of Hartmann's solution was prepared without the addition of BSA and a similar procedure of cannabis smoke formation and bubbling was performed.
Samples having a volume of 3 ml of the BSA solution and the control solution were each inserted in to HPLC glass vials and the open vials were inserted into a vacuum oven for 24 hours at 37° Celsius.
The solid phase after the evaporation was crushed in to a fine powder using mortar and pestle. The powder was extracted using Methanol chloroform 9:1 extract solution, sonicated for 30 minutes, and was then filtered and added in to an HPLC testing tube.
HPLC was performed using an HP1050 AGILENT, DAD detector, XBridge C18 3.5 μm 4.6×150 mm column, and according to the following parameters: […]

BSA [2] = target: T2, BSA (Bos taurus, UniProt P02769); test: THC standard adsorption to BSA at varying ethanol content (Example 1c); assay type: binding, bovine; conditions: 10 micrograms BSA, 30 micrograms THC, 1.5-15 microliters ethanol; FIG. 5
T2 sequence (P02769 25-607): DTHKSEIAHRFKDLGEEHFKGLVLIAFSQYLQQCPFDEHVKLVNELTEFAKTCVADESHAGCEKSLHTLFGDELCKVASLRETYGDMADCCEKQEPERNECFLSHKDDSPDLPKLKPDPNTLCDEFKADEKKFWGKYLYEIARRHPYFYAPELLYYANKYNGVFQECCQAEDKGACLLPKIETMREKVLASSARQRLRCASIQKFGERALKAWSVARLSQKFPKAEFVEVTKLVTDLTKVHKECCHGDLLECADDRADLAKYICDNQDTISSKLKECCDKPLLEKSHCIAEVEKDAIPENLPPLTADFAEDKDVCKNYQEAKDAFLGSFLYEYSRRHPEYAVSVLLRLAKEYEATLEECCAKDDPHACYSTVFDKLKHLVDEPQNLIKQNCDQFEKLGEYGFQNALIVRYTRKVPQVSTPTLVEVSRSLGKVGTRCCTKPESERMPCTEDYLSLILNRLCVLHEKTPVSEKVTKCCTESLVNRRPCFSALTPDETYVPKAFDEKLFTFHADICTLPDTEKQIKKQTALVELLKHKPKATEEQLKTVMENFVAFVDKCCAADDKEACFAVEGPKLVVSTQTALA
Description: 30 micrograms of THC standard was dissolved in various amounts of ethanol (absolute) in various amounts, between 1.5 microliters and 15 microliters. The THC solution was then combined with 0.5 ml of a 20 microgram/ml solution of BSA. […] The results can be seen in FIG. 5.

BSA [3] = target: T2, BSA; test: Cannabis smoke/vapor passed through BSA/water/ethanol solution, cannabinoid profile (Example 1d); assay type: binding, bovine; conditions: 33% ethanol, 48 hours incubation, washed
Description: (§1) To show which cannabinoid compounds are solubilized in processes using BSA versus organic solvents, cannabis from two different batches was smoked and or vaporized. Vapor was formed using a “volcano” vaporizer at a temperature of 210° C. The smoke/vapor was passed through either a BSA/water/ethanol solution described in example 1b, comprising 33% by volume ethanol or through a pure ethanol (99% ethanol) solution. Solutions were stirred using a magnetic stirrer and were incubated for 48 hours, during which time, most of the ethanol evaporated. One of the batches of cannabis was high in THC, and the other batch of cannabis was high in both THC and CBD.
The BSA/water/ethanol solution was washed after smoke or vapor was combined with it, and the amount of cannabinoids present was analyzed. The results of the comparison of relative concentration of cannabinoids (relative to total cannabinoid content) as expressed in percent (weight/weight), for a strain of cannabis high in THC are shown in the table below.

[4] = Cannabis smoke/vapor passed through pure ethanol, cannabinoid profile (Example 1d); assay type: physicochemical; conditions: for relative concentration of cannabinoids (relative to total cannabinoid content), Vapor passed through ethanol: vapor at 210° C.
Description: as §1

BSA [5] = target: T2, BSA; test: Adsorption capacity of BSA using THC standard (Example 1e); assay type: binding, bovine; conditions: albumin 20 μg/ml in water and ethanol; THC 20-60 μg/ml; incubation two hours or 12 hours; FIG. 4
Description: An albumin solution in water (20 μg/ml) and ethanol was prepared. THC standard was added at concentrations of between 20 μg/ml and 60 μg/ml. The amount of THC adsorbed to the BSA protein was determined for each concentration after incubation for either two hours or 12 hours while gently vortexing.

bovine γ-globulin = test: Cannabis vapor streamed through protein solution, cannabinoids adsorbed (Example 1f); assay type: binding; conditions: vapor of cannabis high in CBD; 1 mg/ml protein, ethanol:water 1:2, 30° C., 24 hours
Description: (§2) The protein solutions were formed using ethanol and water in a 1:2 ratio. The solutions were incubated at 30° C. for 24 hours.

ovalbumin (hen) = target: T3, ovalbumin (hen) (Gallus gallus, UniProt P01012); test: as above; assay type: binding; conditions: vapor of cannabis high in CBD; 1 mg/ml protein, ethanol:water 1:2, 30° C., 24 hours
T3 sequence (P01012 1-386): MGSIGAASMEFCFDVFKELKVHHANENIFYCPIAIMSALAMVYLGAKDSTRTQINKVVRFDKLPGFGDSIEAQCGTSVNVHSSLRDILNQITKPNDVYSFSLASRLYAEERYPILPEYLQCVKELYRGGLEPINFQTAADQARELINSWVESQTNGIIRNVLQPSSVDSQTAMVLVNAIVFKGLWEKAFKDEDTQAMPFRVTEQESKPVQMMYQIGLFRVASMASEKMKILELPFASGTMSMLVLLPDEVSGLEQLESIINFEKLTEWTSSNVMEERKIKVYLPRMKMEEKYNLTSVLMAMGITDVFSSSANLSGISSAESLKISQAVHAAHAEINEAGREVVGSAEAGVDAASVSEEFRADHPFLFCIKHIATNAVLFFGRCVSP
Description: as §2

[6] = target: T4, rice recombinant human serum albumin (HSA) (Homo sapiens, UniProt P02768); test: as above; assay type: binding; conditions: vapor of cannabis high in CBD; 1 mg/ml protein, ethanol:water 1:2, 30° C., 24 hours
T4 construct: host or cells: rice (recombinant expression host)
T4 sequence (P02768 25-609): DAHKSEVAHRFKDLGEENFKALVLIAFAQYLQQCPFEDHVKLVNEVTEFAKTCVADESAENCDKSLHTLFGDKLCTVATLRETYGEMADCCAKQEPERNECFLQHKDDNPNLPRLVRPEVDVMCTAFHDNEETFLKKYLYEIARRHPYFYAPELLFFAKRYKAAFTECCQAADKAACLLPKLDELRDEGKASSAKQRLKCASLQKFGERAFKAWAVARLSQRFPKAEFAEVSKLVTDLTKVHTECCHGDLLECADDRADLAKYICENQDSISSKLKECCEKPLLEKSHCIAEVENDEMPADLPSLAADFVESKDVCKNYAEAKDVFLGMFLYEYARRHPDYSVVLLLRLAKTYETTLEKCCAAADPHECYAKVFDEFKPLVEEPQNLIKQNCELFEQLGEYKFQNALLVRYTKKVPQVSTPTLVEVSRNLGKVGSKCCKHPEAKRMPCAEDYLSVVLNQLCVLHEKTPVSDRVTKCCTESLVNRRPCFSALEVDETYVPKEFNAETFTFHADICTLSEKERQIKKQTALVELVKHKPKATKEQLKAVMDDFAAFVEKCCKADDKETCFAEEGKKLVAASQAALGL
Description: as §2

[7] = Cannabinoid content of cannabis extract (Example 2a); assay type: physicochemical; conditions: methanol/chloroform 9:1 cannabis extract
Description: (§3) Cannabis extract was prepared as follows: In short, cannabis plant matter is dried, ground and homogenized to form ground cannabis. The ground cannabis is extracted with methanol/chloroform (volume/volume ratio of 9:1). Sonication and filtration is then performed. Identity of cannabinoids is determined by HPLC by evaporation, dissolution in an appropriate solvent.
(§4) Drying of the cannabis plant matter occurs under high vacuum at about 37±2° C. for about 24 hours and then ground to form a fine powder. 200 mg of ground powder is combined with 10 ml of methanol/chloroform, and sonicated in an ice bath for 30 minutes at maximum power. The supernatant is then filtered through a 0.2 micron filter.
(§5) A sample of the cannabis extract was analyzed for content of cannabinoids. The cannabis extract was then combined with albumin solution having 20% ethanol at 10 mg/ml (BSA) and incubated for 2 hours at room temperature.

BSA [8] = target: T2, BSA; test: Cannabis extract combined with albumin solution, cannabinoids adsorbed to BSA (Example 2a); assay type: binding, bovine; conditions: albumin solution 10 mg/ml (BSA) with 20% ethanol, 2 hours at room temperature
Description: as §3, §4, §5

albumin (BSA) = albumin (BSA) (Bos taurus, UniProt P02769); test: Ethanolic cannabinoid solution mixed with aqueous albumin, protein-bound cannabinoid quantified (Example 2b); assay type: binding, bovine; set-up: protein-bound cannabinoid quantified, Vapor: unit not given beside the values; conditions: 100 microliters ethanolic solution + 500 microliters 5 mg/ml BSA, 30° C., 12 hours, non-adsorbed cannabinoids separated
Chain of albumin (BSA) (P02769 25-607): as the sequence (P02769 25-607) above
Description: 100 microliters of ethanolic cannabinoid solution from cannabis vapor and cannabis smoke were each mixed with 500 microliters of aqueous albumin solution that had been prepared at a concentration of 5 mg albumin (BSA)/ml. The aqueous albumin solution combined with the ethanolic cannabinoid solution was incubated at 30° C. for 12 hours in open tubes. After 12 hours, the tubes were mixed and centrifuged, and non-adsorbed cannabinoids were separated from the solution. Concentrated protein-bound cannabinoid was dried and quantified as described below.

[9] = 3 g high THC strain; 200 ml ethanol concentrated to about 3 ml
[10] = strain of cannabis high in CBD and THC

T1 sequence (P02769 25-607): as above

Structure (SMILES): CCCCCc1cc(O)c2c(c1)OC(C)(C)[C@@H]1CCC(C)=C[C@@H]21 [THC, tetrahydrocannabinol, reference compound]
- active cannabinoids found by HPLC in BSA aqueous solution after cannabis smoke was introduced [1]: dissolved in the solution
- adsorption of THC to protein as ethanol concentration increases (BSA [2]): adsorption of THC to protein increases
- relative concentration of cannabinoids (relative to total cannabinoid content), Smoke passed through BSA/water/ethanol (BSA [3]; [10]): 32.8 percent (weight/weight)
- relative concentration of cannabinoids (relative to total cannabinoid content), Vapor passed through BSA/water/ethanol (BSA [3]; [10]): 37.7 percent (weight/weight)
- relative concentration of cannabinoids (relative to total cannabinoid content), Smoke passed through BSA/water/ethanol (BSA [3]; strain of cannabis high in THC): 69.7 percent (weight/weight)
- relative concentration of cannabinoids (relative to total cannabinoid content), Smoke passed through ethanol [4, 10]: 40.7 percent (weight/weight)
- relative concentration of cannabinoids (relative to total cannabinoid content), Vapor passed through ethanol [4, 10]: 40.9 percent (weight/weight)
- relative concentration of cannabinoids (relative to total cannabinoid content), Smoke passed through ethanol ([4]; strain of cannabis high in THC): 86.7 percent (weight/weight)
- relative concentration of cannabinoids (relative to total cannabinoid content), Vapor passed through ethanol ([4]; strain of cannabis high in THC): 94.6 percent (weight/weight)
- adsorbed THC per mg of albumin (BSA [5]): above 50 μg adsorbed THC per mg of albumin
- percentage of each cannabinoid relative to total cannabinoids adsorbed to protein, Bovine γ-globulin (bovine γ-globulin): 0 percentage
- percentage of each cannabinoid relative to total cannabinoids adsorbed to protein, Ovalbumin (ovalbumin (hen)): 41.7 percentage
- percentage of each cannabinoid relative to total cannabinoids adsorbed to protein, Rice recombinant HSA [6]: 21 percentage
- percentage of each cannabinoid relative to total cannabinoids, Extract [7]: 68 percentage
- percentage of each cannabinoid relative to total cannabinoids adsorbed to protein, Adsorbed to BSA after extract combined with BSA solution (BSA [8]): 63 percentage
- protein-bound cannabinoid quantified, Smoke (albumin (BSA)): 121.38
- protein-bound cannabinoid quantified, Vapor (albumin (BSA)): 131.955
- amount of cannabinoids dissolved in ethanol, Smoke [9]: 6195.223 micrograms/ml
- amount of cannabinoids dissolved in ethanol, Vapor [9]: 3777.7796 micrograms/ml
